Data from ChEMBL document CHEMBL1153802, “Human plasma-mediated hypoxic activation of indolequinone-based naloxone pro-drugs” (Bioorg Med Chem Lett, 2009).

Tested on: Plasma
Assay: Prodrug stability in human plasma assessed as […] release under normoxic condition after 24 hrs by HPLC analysis
Format: ADME, cell-free

C=CCN1CC[C@]23c4c5ccc(OC(=O)N(C)CCN(C)C(=O)OCc6c7c(n(C(=O)NCCOCCOCCNC(=O)OC(C)(C)C)c6C)C(=O)C=C(OC)C7=O)c4O[C@H]2C(=O)CC[C@@]3(O)[C@H]1C5
Stability: Unstable
